One experiment relates to A2780cisR. The experiment is described as follows: Cytotoxicity against cisplatin resistant human A2780 cisR cells at < 100 uM assessed as reduction in cell viability incubated for 72 hrs by MTT assay. Format: functional, cell-based.
Experiment [1] relates to A2780 cisR. The experiment is described as follows: Inhibition of class I/6 HDAC (unknown origin) in cisplatin resistant human A2780 cisR cells at < 100 uM using Boc-Lys(epsilon-Ac)-AMC as substrate preincubated with compound for 18 hrs followed by substrate addition and measured after 3 hrs by NOVOstar microplate reader analysis. The experiment is classed as cell-based.

The target of experiment [2] is T1, Protein deacetylase HDAC6 (Homo sapiens, UniProt Q9UBN7).
T1 sequence (Q9UBN7 whole entry): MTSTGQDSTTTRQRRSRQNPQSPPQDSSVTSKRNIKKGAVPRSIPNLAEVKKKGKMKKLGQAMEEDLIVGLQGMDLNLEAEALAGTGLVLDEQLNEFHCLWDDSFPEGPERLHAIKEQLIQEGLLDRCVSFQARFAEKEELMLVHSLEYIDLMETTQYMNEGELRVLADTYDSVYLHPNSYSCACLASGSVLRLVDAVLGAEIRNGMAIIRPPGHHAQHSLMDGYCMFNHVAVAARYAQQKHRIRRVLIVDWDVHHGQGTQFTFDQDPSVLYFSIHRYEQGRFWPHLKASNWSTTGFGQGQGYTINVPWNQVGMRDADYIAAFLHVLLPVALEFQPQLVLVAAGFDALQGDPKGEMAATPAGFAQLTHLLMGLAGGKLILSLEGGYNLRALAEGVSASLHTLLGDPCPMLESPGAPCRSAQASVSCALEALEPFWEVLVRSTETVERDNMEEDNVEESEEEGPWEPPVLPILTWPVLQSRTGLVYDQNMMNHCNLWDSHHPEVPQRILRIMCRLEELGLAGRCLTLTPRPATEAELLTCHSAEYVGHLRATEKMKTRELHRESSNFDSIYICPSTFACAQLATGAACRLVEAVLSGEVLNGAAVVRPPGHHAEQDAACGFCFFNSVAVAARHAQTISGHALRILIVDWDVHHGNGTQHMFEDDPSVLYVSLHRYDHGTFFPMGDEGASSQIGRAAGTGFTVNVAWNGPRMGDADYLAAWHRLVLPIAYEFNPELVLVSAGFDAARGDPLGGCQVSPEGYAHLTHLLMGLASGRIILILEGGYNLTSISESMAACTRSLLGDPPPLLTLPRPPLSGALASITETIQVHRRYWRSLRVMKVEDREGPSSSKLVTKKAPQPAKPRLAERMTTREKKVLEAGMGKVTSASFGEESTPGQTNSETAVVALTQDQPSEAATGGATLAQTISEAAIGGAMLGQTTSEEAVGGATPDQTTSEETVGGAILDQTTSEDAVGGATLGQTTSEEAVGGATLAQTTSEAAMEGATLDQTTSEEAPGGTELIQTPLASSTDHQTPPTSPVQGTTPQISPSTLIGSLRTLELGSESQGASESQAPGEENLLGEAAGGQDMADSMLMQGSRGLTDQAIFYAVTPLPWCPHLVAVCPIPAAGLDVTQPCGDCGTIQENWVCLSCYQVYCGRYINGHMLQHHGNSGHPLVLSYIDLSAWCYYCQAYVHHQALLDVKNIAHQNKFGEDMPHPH
The experiment is described as follows: Inhibition of N-terminal GST-tagged full length recombinant human HDAC6 (1 to 1215 end residues) expressed in sf9 cells using ZMAL (Z-Lys(Ac)-AMC as fluorogenic substrate preincubated with compound for 60 mins followed by substrate addition and measured after 90 mins by fluorescence based microplate reader analysis.

Experiment [3] has as its target T2, Histone deacetylase 3/Nuclear receptor corepressor 2 (HDAC3/NCoR2) (Homo sapiens) (UniProt O15379+Q9Y618). The experiment is described as follows: Inhibition of C-terminal His tagged human recombinant HDAC3 (1 to 428 end residues)/N-terminal GST-tagged human NcoR2 expressed in sf9 cells at > 10 uM using ZMAL (Z-Lys(Ac)-AMC as fluorogenic substrate preincubated with compound for 60 mins followed by substrate addition and measured after 90 mins by fluorescence based microplate reader analysis relative to control. To be noted: time 150.0 min.

In the next experiment the target is Histone deacetylase 4 (Homo sapiens, UniProt P56524). The experiment in a line: Inhibition of recombinant HDAC4 (unknown origin) using Bos-Lys(TFA)-AMC as substrate preincubated with compound for 5 mins and measured after 90 mins by NOVOstar microplate reader analysis.
Sequence of Histone deacetylase 4 (P56524 whole entry): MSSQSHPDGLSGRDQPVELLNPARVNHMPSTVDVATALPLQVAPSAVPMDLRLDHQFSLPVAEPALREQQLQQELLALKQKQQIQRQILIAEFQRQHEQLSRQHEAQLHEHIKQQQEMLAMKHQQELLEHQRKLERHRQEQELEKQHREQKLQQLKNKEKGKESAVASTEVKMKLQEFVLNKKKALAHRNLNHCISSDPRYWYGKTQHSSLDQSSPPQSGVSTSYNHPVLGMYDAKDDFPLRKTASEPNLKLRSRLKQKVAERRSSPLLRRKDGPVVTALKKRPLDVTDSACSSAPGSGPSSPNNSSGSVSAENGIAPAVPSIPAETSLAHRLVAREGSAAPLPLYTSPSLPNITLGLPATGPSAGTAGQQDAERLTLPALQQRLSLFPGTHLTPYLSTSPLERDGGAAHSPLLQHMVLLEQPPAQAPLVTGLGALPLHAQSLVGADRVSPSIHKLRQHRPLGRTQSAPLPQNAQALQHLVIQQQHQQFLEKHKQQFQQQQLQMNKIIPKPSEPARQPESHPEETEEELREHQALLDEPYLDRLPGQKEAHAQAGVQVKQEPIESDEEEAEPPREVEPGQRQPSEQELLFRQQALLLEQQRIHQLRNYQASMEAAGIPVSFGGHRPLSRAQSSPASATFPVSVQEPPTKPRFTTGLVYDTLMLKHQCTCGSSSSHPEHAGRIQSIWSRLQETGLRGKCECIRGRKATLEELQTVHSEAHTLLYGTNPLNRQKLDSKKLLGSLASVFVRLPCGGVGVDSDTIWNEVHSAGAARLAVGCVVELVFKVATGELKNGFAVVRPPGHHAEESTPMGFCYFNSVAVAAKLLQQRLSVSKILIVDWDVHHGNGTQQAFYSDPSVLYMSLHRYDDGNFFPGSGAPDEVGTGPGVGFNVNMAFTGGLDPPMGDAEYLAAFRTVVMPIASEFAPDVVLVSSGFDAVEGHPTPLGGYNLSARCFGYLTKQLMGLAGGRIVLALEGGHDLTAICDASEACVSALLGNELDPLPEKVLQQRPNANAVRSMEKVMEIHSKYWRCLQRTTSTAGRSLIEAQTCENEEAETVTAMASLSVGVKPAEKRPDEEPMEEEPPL
The target of the next experiment is Histone deacetylase 1 (Homo sapiens, UniProt Q13547). The experiment is described as follows: Inhibition of C-terminal 6-his/FLAG tagged full length human recombinant HDAC1 (1 to 482 end residues) expressed in sf9 cells at 10 uM using ZMAL (Z-Lys(Ac)-AMC as fluorogenic substrate preincubated with compound for 60 mins followed by substrate addition and measured after 90 mins by fluorescence based microplate reader analysis relative to control. To be noted: time 150.0 min.
Sequence of Histone deacetylase 1 (Q13547 whole entry): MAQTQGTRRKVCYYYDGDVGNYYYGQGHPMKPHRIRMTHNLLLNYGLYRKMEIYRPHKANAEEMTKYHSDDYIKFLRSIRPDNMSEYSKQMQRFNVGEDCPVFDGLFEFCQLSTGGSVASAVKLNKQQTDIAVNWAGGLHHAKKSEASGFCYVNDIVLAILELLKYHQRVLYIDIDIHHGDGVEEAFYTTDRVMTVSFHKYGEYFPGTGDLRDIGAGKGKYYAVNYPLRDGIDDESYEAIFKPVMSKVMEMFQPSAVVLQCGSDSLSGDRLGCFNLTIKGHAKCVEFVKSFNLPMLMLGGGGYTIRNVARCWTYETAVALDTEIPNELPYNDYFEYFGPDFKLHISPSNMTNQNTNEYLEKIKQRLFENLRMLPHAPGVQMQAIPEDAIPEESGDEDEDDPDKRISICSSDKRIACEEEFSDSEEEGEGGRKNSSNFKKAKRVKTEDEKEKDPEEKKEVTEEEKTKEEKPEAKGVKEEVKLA

A short description of experiment [4]: cells. Conditions: Homo sapiens, Cal27CisR.
Description: Inhibition of class I/6 HDAC (unknown origin) in cisplatin resistant human Cal27CisR cells using Boc-Lys(epsilon-Ac)-AMC as substrate preincubated with compound for 18 hrs followed by substrate addition and measured after 3 hrs by NOVOstar microplate reader analysis
The test system of experiment [5] is A2780. The experiment is described as follows: cells. To be noted: Homo sapiens, A2780, 72 h.
Description: Cytotoxicity against human A2780 cells assessed as reduction in cell viability incubated for 72 hrs by MTT assay
The test system of experiment [6] is Cal27CisR. The experiment in a line: Cytotoxicity against cisplatin resistant human Cal27CisR cells at < 10 uM assessed as reduction in cell viability incubated for 72 hrs by MTT assay. Format: functional, cell-based. A general note: Tetrazolium dyes change colour on reduction, which living cells bring about.
Experiment [7] has as its system A2780. The experiment in a line: Inhibition of class I/6 HDAC (unknown origin) in human A2780 cells at < 100 uM using Boc-Lys(epsilon-Ac)-AMC as substrate preincubated with compound for 18 hrs followed by substrate addition and measured after 3 hrs by NOVOstar microplate reader analysis. The experiment is classed as cell-based.
The target of experiment [8] is Histone deacetylase 3/Nuclear receptor corepressor 2 (HDAC3/NCoR2) (Homo sapiens, UniProt O15379). Format: cell-based, Sf9.
Sequence of Histone deacetylase 3/Nuclear receptor corepressor 2 (HDAC3/NCoR2) (O15379 whole entry): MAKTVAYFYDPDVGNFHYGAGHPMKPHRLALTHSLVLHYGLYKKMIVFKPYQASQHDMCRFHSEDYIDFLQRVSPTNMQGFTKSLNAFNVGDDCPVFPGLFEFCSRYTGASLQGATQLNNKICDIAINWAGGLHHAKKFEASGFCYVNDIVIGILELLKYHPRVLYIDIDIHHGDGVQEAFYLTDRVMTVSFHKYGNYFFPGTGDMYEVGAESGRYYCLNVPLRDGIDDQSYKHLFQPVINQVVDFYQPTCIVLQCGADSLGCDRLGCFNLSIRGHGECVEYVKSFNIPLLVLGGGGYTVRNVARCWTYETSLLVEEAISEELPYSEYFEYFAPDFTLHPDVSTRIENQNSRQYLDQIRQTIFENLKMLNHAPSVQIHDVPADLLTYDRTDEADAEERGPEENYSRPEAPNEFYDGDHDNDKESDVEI
Sequence of Histone deacetylase 3/Nuclear receptor corepressor 2 (HDAC3/NCoR2) (Q9Y618 whole entry, further chain): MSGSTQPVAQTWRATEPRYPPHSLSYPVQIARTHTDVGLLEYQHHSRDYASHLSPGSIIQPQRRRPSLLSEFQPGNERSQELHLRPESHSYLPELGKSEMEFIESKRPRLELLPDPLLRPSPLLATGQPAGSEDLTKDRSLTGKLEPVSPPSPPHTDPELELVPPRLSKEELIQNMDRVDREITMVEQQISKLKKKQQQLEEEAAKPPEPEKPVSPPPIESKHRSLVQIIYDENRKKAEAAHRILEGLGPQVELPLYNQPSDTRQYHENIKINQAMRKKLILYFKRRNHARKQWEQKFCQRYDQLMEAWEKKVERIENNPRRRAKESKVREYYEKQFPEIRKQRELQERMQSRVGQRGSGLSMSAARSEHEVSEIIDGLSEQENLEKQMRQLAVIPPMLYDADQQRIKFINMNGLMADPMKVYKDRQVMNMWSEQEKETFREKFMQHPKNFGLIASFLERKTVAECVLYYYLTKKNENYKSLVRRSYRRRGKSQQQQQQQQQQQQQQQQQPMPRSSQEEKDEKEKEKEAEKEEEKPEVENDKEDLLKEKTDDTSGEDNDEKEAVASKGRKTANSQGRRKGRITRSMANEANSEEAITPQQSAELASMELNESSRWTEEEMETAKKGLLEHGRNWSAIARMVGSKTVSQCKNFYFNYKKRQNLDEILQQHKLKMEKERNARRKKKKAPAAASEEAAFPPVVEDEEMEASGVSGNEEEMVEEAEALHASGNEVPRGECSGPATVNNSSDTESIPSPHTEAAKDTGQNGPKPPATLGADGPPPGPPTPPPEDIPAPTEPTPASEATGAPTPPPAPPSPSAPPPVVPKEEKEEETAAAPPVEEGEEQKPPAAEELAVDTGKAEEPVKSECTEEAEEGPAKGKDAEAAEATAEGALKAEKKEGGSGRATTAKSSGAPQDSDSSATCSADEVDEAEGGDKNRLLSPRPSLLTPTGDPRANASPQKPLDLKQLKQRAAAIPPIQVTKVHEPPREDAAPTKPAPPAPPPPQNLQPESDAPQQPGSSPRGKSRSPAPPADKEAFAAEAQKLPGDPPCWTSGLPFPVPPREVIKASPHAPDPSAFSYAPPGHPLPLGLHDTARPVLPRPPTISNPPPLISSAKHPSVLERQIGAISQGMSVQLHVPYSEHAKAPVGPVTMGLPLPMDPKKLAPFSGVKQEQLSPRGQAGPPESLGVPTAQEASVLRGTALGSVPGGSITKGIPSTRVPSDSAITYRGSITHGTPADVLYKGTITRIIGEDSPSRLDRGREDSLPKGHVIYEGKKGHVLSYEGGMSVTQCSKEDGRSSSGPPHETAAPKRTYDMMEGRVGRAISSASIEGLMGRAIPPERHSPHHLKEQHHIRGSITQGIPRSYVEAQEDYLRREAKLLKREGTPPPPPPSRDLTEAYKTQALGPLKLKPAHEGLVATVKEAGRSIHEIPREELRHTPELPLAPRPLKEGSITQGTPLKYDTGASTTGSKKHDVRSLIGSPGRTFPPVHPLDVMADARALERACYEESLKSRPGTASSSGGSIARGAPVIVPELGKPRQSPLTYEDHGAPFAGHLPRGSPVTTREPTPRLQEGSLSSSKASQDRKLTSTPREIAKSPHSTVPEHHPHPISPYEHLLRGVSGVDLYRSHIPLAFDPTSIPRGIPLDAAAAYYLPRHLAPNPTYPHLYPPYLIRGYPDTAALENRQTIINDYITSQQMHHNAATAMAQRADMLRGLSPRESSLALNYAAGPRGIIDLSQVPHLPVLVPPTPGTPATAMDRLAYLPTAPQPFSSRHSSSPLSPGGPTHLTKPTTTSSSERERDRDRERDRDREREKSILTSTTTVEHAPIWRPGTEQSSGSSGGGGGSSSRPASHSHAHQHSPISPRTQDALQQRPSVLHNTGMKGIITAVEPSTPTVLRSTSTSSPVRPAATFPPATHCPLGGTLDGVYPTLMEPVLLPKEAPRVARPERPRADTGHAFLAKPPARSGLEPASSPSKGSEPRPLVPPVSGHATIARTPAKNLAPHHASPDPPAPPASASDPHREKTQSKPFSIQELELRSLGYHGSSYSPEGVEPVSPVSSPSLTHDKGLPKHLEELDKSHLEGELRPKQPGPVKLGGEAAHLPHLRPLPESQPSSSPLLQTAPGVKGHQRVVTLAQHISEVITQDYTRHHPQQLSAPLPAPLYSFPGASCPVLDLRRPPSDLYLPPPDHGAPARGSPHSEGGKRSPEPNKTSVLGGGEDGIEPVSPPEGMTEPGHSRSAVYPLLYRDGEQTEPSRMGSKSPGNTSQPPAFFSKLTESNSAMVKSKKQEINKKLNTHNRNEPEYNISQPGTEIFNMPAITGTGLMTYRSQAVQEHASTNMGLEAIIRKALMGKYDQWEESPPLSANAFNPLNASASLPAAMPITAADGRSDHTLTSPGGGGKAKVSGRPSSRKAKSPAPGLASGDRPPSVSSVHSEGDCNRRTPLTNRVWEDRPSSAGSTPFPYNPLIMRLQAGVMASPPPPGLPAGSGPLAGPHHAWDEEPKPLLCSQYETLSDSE
The target in experiment [9] is T3, Histone deacetylase 8 (Homo sapiens) (UniProt Q9BY41).
T3 sequence (whole entry): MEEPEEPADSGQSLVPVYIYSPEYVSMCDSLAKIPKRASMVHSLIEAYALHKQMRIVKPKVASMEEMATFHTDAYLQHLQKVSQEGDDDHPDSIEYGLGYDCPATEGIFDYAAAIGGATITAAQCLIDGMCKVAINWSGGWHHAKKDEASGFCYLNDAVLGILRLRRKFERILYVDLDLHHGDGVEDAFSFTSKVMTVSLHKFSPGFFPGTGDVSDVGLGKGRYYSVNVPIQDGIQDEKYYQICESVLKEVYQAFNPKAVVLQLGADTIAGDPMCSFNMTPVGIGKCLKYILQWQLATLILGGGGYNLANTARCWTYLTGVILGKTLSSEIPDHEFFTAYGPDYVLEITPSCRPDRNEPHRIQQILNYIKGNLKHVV
The experiment is described as follows: Inhibition of recombinant HDAC8 (unknown origin) at > 10 uM using Bos-Lys(TFA)-AMC as substrate preincubated with compound for 5 mins and measured after 90 mins by NOVOstar microplate reader analysis relative to control. To be noted: time 95.0 min.

For experiment [10], the target named is Histone deacetylase 2 (Homo sapiens) (UniProt Q92769). The experiment in a line: Inhibition of C-terminal FLAG tagged full length human recombinant HDAC2 (1 to 488 end residues) expressed in sf9 cells at 10 uM using ZMAL (Z-Lys(Ac)-AMC as fluorogenic substrate preincubated with compound for 60 mins followed by substrate addition and measured after 90 mins by fluorescence based microplate reader analysis relative to control. Conditions: time 150.0 min.
Sequence of Histone deacetylase 2 (Homo sapiens) (Q92769 whole entry): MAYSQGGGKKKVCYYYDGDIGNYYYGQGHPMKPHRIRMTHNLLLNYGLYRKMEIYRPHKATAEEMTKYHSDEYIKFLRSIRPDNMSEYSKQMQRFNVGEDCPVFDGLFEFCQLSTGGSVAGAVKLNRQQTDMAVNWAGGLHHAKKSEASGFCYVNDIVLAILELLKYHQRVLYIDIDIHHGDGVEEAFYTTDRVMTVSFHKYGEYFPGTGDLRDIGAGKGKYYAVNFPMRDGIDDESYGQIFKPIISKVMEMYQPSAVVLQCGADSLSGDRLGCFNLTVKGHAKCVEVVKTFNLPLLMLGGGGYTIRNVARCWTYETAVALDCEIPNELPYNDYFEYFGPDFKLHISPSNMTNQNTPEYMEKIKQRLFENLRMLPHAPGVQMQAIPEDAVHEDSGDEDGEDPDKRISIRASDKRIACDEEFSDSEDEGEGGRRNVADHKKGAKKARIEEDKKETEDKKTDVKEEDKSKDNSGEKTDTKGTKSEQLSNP

For experiment [11], the system named is CAL-27. The experiment is described as follows: Cytotoxicity against human CAL-27 cells at < 100 uM assessed as reduction in cell viability incubated for 72 hrs by MTT assay. The experiment is classed as functional, cell-based.
Experiment [12] is described as follows: cells. To be noted: Homo sapiens, CAL-27.
Description: Inhibition of class I/6 HDAC (unknown origin) in human CAL-27 cells using Boc-Lys(epsilon-Ac)-AMC as substrate preincubated with compound for 18 hrs followed by substrate addition and measured after 3 hrs by NOVOstar microplate reader analysis
Experiment [13] concerns the target T4, Protein deacetylase HDAC6 (Homo sapiens) (UniProt Q9UBN7).
T4 sequence (whole entry): T1 sequence (Q9UBN7 whole entry)
The experiment in a line: Inhibition of N-terminal GST-tagged full length recombinant human HDAC6 (1 to 1215 end residues) expressed in sf9 cells at > 10 uM using ZMAL (Z-Lys(Ac)-AMC as fluorogenic substrate preincubated with compound for 60 mins followed by substrate addition and measured after 90 mins by fluorescence based microplate reader analysis relative to control. Conditions: time 150.0 min.

Another experiment has as its target T5, Histone deacetylase 8 (Homo sapiens, UniProt Q9BY41).
T5 sequence (Q9BY41 whole entry): T3 sequence (whole entry)
The experiment is described as follows: Inhibition of recombinant HDAC8 (unknown origin) using Bos-Lys(TFA)-AMC as substrate preincubated with compound for 5 mins and measured after 90 mins by NOVOstar microplate reader analysis.

Experiment [14] deals with A2780. The experiment in a line: Inhibition of class I/6 HDAC (unknown origin) in human A2780 cells at < 10 uM using Boc-Lys(epsilon-Ac)-AMC as substrate preincubated with compound for 18 hrs followed by substrate addition and measured after 3 hrs by NOVOstar microplate reader analysis. Format: cell-based.
In experiment [15] the target is Histone deacetylase 2 (Homo sapiens) (UniProt Q92769). The experiment in a line: Inhibition of C-terminal FLAG tagged full length human recombinant HDAC2 (1 to 488 end residues) expressed in sf9 cells at > 10 uM using ZMAL (Z-Lys(Ac)-AMC as fluorogenic substrate preincubated with compound for 60 mins followed by substrate addition and measured after 90 mins by fluorescence based microplate reader analysis relative to control.

The test system of experiment [16] is CAL-27. The experiment is described as follows: Inhibition of class I/6 HDAC (unknown origin) in human CAL-27 cells at < 10 uM using Boc-Lys(epsilon-Ac)-AMC as substrate preincubated with compound for 18 hrs followed by substrate addition and measured after 3 hrs by NOVOstar microplate reader analysis. The experiment is classed as cell-based.
For experiment [17], the system named is Cal27CisR. The experiment in a line: Inhibition of class I/6 HDAC (unknown origin) in cisplatin resistant human Cal27CisR cells at < 10 uM using Boc-Lys(epsilon-Ac)-AMC as substrate preincubated with compound for 18 hrs followed by substrate addition and measured after 3 hrs by NOVOstar microplate reader analysis. The experiment is classed as cell-based.

Experiment [18] has as its target T2, Histone deacetylase 3/Nuclear receptor corepressor 2 (HDAC3/NCoR2) (Homo sapiens). The experiment in a line: Inhibition of C-terminal His tagged human recombinant HDAC3 (1 to 428 end residues)/N-terminal GST-tagged human NcoR2 expressed in sf9 cells at 10 uM using ZMAL (Z-Lys(Ac)-AMC as fluorogenic substrate preincubated with compound for 60 mins followed by substrate addition and measured after 90 mins by fluorescence based microplate reader analysis relative to control. To be noted: time 150.0 min.

Experiment [19] relates to A2780. The experiment is described as follows: Cytotoxicity against human A2780 cells at < 100 uM assessed as reduction in cell viability incubated for 72 hrs by MTT assay. Format: functional, cell-based.
Experiment [20] relates to A2780 cisR. The experiment in a line: Inhibition of class I/6 HDAC (unknown origin) in cisplatin resistant human A2780 cisR cells at < 10 uM using Boc-Lys(epsilon-Ac)-AMC as substrate preincubated with compound for 18 hrs followed by substrate addition and measured after 3 hrs by NOVOstar microplate reader analysis. Format: cell-based.
The nature of experiment [21]: cells. To be noted: Homo sapiens, A2780.
Description: Inhibition of class I/6 HDAC (unknown origin) in human A2780 cells using Boc-Lys(epsilon-Ac)-AMC as substrate preincubated with compound for 18 hrs followed by substrate addition and measured after 3 hrs by NOVOstar microplate reader analysis
Experiment [22] deals with T4, Protein deacetylase HDAC6 (Homo sapiens). The experiment is described as follows: Inhibition of N-terminal GST-tagged full length recombinant human HDAC6 (1 to 1215 end residues) expressed in sf9 cells at 10 uM using ZMAL (Z-Lys(Ac)-AMC as fluorogenic substrate preincubated with compound for 60 mins followed by substrate addition and measured after 90 mins by fluorescence based microplate reader analysis relative to control. To be noted: time 150.0 min.

Experiment [23] in a line: cells. To be noted: Homo sapiens, A2780cisR.
Description: Inhibition of class I/6 HDAC (unknown origin) in cisplatin resistant human A2780 cisR cells using Boc-Lys(epsilon-Ac)-AMC as substrate preincubated with compound for 18 hrs followed by substrate addition and measured after 3 hrs by NOVOstar microplate reader analysis
The subject of experiment [24] is CAL-27. The experiment is described as follows: cells. To be noted: Homo sapiens, CAL-27, 72 h.
Description: Cytotoxicity against human CAL-27 cells assessed as reduction in cell viability incubated for 72 hrs by MTT assay

Calls of active or inactive are those of the source. The rule behind the calls is not given here.

Broadly, the inhibition is the drop in the measured response relative to a control, in per cent. In general, IC50 refers to the point on the concentration scale where inhibition reaches its midpoint. As for `CN(C)c1ccc(C(=O)N(CC(=O)NCc2ccccc2)Cc2ccc(C(=O)NNCCC(C)(C)C)cc2)cc1`, the outcome in the experiment with A2780cisR, in the experiment with Cal27CisR [6] and in the experiment on CAL-27 [11] was inactive. The inhibition result in the experiment with A2780 cisR [1] and in the experiment with A2780 [7] was “inactive” throughout. Further, the IC50 is greater than 10 µM in [2]; greater than 10 µM at Histone deacetylase 4; 43.6 µM in “cells [4]”; 70.2 µM in the experiment with A2780 [5]; greater than 10 µM in experiment [8]; 83.4 µM in the experiment “cells [12]”. In addition, the IC50 at Histone deacetylase 8 is greater than 10 µM. For the same compound, the inhibition was less than 25% in experiment [3]; 63% at Histone deacetylase 1; less than 25% in experiment [9]; 46% in [10]; less than 25% in experiment [13].

As to `CN(C)c1ccc(C(=O)N(CC(=O)NCc2ccccc2)Cc2ccc(C(=O)NNC/C=C/c3ccccc3)cc2)cc1`, the result in the experiment on A2780cisR, in the experiment on Cal27CisR [6], with A2780 [19] and in the experiment on CAL-27 [11] was inactive. The inhibition entry with A2780 [14], in the experiment with CAL-27 [16], in the experiment on Cal27CisR [17] and with A2780 cisR [20] was “inactive” throughout. Moreover, the inhibition was less than 25% in experiment [15]; 37% on Histone deacetylase 1; 32% in [18]; less than 25% in experiment [9]; less than 25% in experiment [13]. For the same compound, the IC50 (in [2]; on Histone deacetylase 4; on Histone deacetylase 8) was greater than 10 µM each time.

In the case of `CN(C)c1ccc(C(=O)N(CC(=O)NCc2ccccc2)Cc2ccc(C(=O)NN)cc2)cc1`, the outcome in the experiment on A2780cisR, in the experiment on Cal27CisR [6] and in the experiment on A2780 [19] was inactive. The 50% inhibitory concentration (IC50) is greater than 10 µM on Histone deacetylase 4; 33.1 µM in “cells [21]”; 35.9 µM in “cells [4]”; 37.7 µM in “cells [23]”; 63.5 µM with CAL-27 [24]; 30.9 µM in the experiment “cells [12]”. Also, the IC50 at Histone deacetylase 8 was greater than 10 µM. Further, the inhibition on Histone deacetylase 1 is 62%; in experiment [18], 57%; in experiment [22], 55%; in [9] it was less than 25%; in [10], 53%.

Source of the values: ChEMBL document CHEMBL6120974, “Hydrazide-Based Class I Selective HDAC Inhibitors Completely Reverse Chemoresistance Synergistically in Platinum-Resistant Solid Cancer Cells” (J Med Chem, 2024).
